Measurements from patent US20230322789A1, “PYRAZOLOPYRIDAZINONE COMPOUND, AND PHARMACEUTICAL COMPOSITION AND USE THEREOF” (BroadenBio Co., Ltd., priority 2020, published 2023).
pIC50: −log10 of the molar value.

Assays:
Human Jurkat-E6-1 cells = assay: Measurement of IL-2 secretion of Jurkat cells by ELISA; type: cell-based; conditions: Homo sapiens, Jurkat E6.1, anti-CD3/anti-CD28 stimulation 24 hours, read-out: Percentage of the amount of IL-2 secreted from compound treated/DMSO-treated cells; for activity at 1 µM: test compound 1.0 μM; for activity at 3 µM: test compound 3.0 μM
Description: 2. Measurement of IL-2 Secretion of Jurkat Cells by ELISA
Human Jurkat-E6-1 cells were incubated with various concentrations of test compounds for 30 minutes in a humidified incubator at 37° C. and […]. Cells were transferred to cell culture plates pre-coated with anti-human CD3 antibody, then soluble anti-human CD28 antibody was added, and cells were stimulated for 24 hours at 37° C. and 5% CO2 in a humidified incubator. The cell culture medium was collected by centrifugation, and was then transferred to a 96-well transparent microtiter plate (Thermo) pre-coated with anti-human IL-2 antibody, incubated at room temperature for 2 hours, and gently shaken, washed with washing buffer for 4 times, and then followed the ELISA MAX Deluxe Set Human IL-2 (BioLegend) kit procedure, used a microplate reader (Molecular Device, i3X) to read the GD value. The best standard curve was selected by the microplate reader application software, and the corresponding concentration was calculated according to the GD value of the standard. Results are expressed as a percentage of the amount of IL-2 secreted from compound-treated/DMSO-treated cells.

HPK1 = HPK1 (Homo sapiens (Human), UniProt Q92918); assay: HPK1 kinase activity inhibition test (ADP-Glo, luminescence); type: biochemical; conditions: HPK1 5 nM, ATP 2 μM, read-out: IC50, inhibitory effects of compounds on HPK1 kinase activity
Summary of the method: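 HPK1 autophosphorylation was run without added substrate. Kinase and compound were preincubated 10 min at 25° C., then ATP was added for 60 min at 25° C. ADP formed was detected by ADP-Glo luminescence, and IC50 was taken from a four-parameter nonlinear fit.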

Chain of HPK1 (Q92918 whole entry): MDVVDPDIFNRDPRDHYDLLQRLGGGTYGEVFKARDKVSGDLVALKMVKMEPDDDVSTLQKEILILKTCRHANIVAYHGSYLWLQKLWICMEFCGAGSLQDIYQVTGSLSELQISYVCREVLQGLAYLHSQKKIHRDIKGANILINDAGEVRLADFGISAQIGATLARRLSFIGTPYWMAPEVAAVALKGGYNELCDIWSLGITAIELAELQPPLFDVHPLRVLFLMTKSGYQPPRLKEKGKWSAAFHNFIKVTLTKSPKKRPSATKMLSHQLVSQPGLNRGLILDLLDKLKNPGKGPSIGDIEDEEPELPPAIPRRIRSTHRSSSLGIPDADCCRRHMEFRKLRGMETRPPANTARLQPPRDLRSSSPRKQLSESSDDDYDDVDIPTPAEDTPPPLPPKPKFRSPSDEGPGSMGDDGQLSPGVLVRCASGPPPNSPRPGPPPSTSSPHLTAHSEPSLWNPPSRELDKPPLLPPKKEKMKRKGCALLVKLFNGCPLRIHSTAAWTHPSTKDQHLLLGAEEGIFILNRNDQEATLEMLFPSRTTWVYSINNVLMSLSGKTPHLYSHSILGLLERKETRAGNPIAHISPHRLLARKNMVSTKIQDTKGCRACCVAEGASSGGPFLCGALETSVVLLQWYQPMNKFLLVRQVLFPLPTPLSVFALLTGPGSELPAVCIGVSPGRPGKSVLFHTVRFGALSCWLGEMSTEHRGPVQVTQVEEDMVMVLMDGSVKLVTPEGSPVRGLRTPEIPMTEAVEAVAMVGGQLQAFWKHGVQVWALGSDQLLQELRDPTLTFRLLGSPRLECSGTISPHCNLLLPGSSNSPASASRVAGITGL

Structure (SMILES) | activity at 1 µM (Human Jurkat-E6-1 cells) [%] | pIC50 (HPK1) | activity at 3 µM (Human Jurkat-E6-1 cells) [%]
COc1cccc(F)c1-n1nc2c(-c3cnc(N4CCN(C)CC4)nc3)n[nH]c2cc1=O [Compound 28, 5-(2-fluoro-6-methoxyphenyl)-3-(2-(4-methylpiperazin-1-yl)pyrimidin-5-yl)-1H-pyrazolo[4,3-c]pyridazin-6(5H)-one] | 302 | ≥ 7.30 | –
CC(C)c1cccc(F)c1-n1nc2c(-c3ccc(N4CCN(C)CC4)cc3)n[nH]c2cc1=O [Compound 29, 5-(2-fluoro-6-isopropylphenyl)-3-(4-(4-methylpiperazin-1-yl)phenyl)-1H-pyrazolo[4,3-c]pyridazin-6(5H)-one] | 291 | ≥ 7.30 | –
COc1cccc(F)c1-n1nc2c(-c3ccc(N4CCN(C)C(=O)C4)cc3)n[nH]c2cc1=O [Compound 33, 5-(2-fluoro-6-methoxyphenyl)-3-(4-(4-methyl-3-oxo-piperazin-1-yl)phenyl)-1H-pyrazolo [4,3-c]pyridazin-6(5H)-one] | 631 | ≥ 7.30 | –
CN1CCN(c2ccc(-c3n[nH]c4cc(=O)n(-c5c(F)cccc5C5CC5)nc34)cc2)CC1 [Compound 34, 5-(2-fluoro-6-cyclopropylphenyl)-3-(4-(4-methylpiperazin-1-yl)phenyl)-1H-pyrazolo[4,3-c]pyridazin-6(5H)-one] | 284 | ≥ 7.30 | –
Cc1cc(C#N)cc(F)c1-n1nc2c(-c3ccc(N4CCN(C)CC4)cc3)n[nH]c2cc1=O [Compound 42, 3-fluoro-5-methyl-4-(3-(4-(4-methylpiperazin-1-yl)phenyl)-6-oxo-1H-pyrazolo[4,3-c]pyridazin-5(6H)-yl)benzonitrile] | – | ≥ 7.30 | 365
Cc1cccc(F)c1-n1nc2c(-c3ccc(N4CCN(C5CC5)CC4)cc3)n[nH]c2cc1=O [Compound 58, 3-(4-(4-cyclopropylpiperazin-1-yl)phenyl)-5-(2-fluoro-6-methylphenyl)-1H-pyrazolo[4,3-c]pyridazin-6(5H)-one] | – | 6.30 to 7.30 | 233
Cc1cccc(F)c1-n1nc2c(-c3ccc(N4CC5CCC(C4)N5C)cc3)n[nH]c2cc1=O [Compound 61, 5-(2-fluoro-6-methylphenyl)-3-(4-(8-methyl-3,8-diazabicyclo[3.2.1]octan-3-yl)phenyl)-1H-pyrazolo[4,3-c]pyridazin-6(5H)-one] | – | ≥ 7.30 | 635
COc1cccc(F)c1-n1nc2c(-c3ccc4c(c3)CN(C)CC4)n[nH]c2cc1=O [Compound 73, 5-(2-fluoro-6-methoxyphenyl)-3-(2-methyl-1,2,3,4-tetrahydroisoquinolin-7-yl)-1H-pyrazolo[4,3-c]pyridazin-6(5H)-one] | – | ≥ 7.30 | 926
COc1cc(C#N)cc(F)c1-n1nc2c(-c3ccc(N4CCN(C)CC4)cc3)n[nH]c2cc1=O [Compound 74, 3-fluoro-5-methoxy-4-(3-(4-(4-methylpiperazin-1-yl)phenyl)-6-oxo-1H-pyrazolo[4,3-c]pyridazin-5(6H)-yl)benzonitrile] | – | ≥ 7.30 | 411
CN1CCN(c2ccc(-c3n[nH]c4cc(=O)n(-c5cccc6c5OCO6)nc34)cc2)CC1 [Compound 76] | – | ≥ 7.30 | 561
COc1cc(F)cc(F)c1-n1nc2c(-c3ccc(N4CCN(C)CC4)cc3)n[nH]c2cc1=O [Compound 77, 5-(2,4-difluoro-6-methoxyphenyl)-3-(4-(4-methylpiperazin-1-yl)phenyl)-1H-pyrazolo[4,3-c]pyridazin-6(5H)-one] | 233 | ≥ 7.30 | –
CNC(=O)c1cc(F)c(-n2nc3c(-c4ccc(N5CCN(C)CC5)cc4)n[nH]c3cc2=O)c(OC)c1 [Compound 79, 3-fluoro-5-methoxy-N-methyl-4-(3-(4-(4-methylpiperazin-1-yl)phenyl)-6-oxo-1H-pyrazolo[4,3-c]pyridazin-5(6H)-yl)benzamide] | – | ≥ 7.30 | 361
COc1cc(C(=O)N(C)C)cc(F)c1-n1nc2c(-c3ccc(N4CCN(C)CC4)cc3)n[nH]c2cc1=O [Compound 80, 3-fluoro-5-methoxy-N,N-dimethyl-4-(3-(4-(4-methylpiperazin-1-yl)phenyl)-6-oxo-1H-pyrazolo[4,3-c]pyridazin-5(6H)-yl)benzamide] | – | ≥ 7.30 | 191
[2H]C([2H])([2H])N1CCN(c2ccc(-c3n[nH]c4cc(=O)n(-c5c(C)cccc5F)nc34)cc2)CC1 [Compound 81, 5-(2-fluoro-6-methylphenyl)-3-(4-(4-(methyl-d3)piperazin-1-yl)phenyl)-1H-pyrazolo[4,3-c]pyridazin-6(5H)-one] | – | ≥ 7.30 | 679
Cc1cc(C#N)cc(F)c1-n1nc2c(-c3ccc(N4CCN(C(=O)[C@H](C)N)CC4)cc3)n[nH]c2cc1=O [Compound 82] | – | ≥ 7.30 | 195
Cc1cc(C#N)cc(F)c1-n1nc2c(-c3ccc(N4CCN(C(=O)C(C)O)CC4)cc3)n[nH]c2cc1=O (stereo not drawn) [Compound 83] | – | ≥ 7.30 | 252
Cc1cc(C#N)cc(F)c1-n1nc2c(-c3ccc(N4CCN(C5CCOC5)CC4)cc3)n[nH]c2cc1=O (stereo not drawn) [Compound 85, 3-fluoro-5-methyl-4-(6-oxo-3-(4-(4-(tetrahydrofuran-3-yl)piperazin-1-yl)phenyl)-1H-pyrazolo[4,3-c]pyridazin-5(6H)-yl)benzonitrile] | – | ≥ 7.30 | 239
COc1cc(C#N)cc(F)c1-n1nc2c(-c3ccc(N4CCN(C5COC5)CC4)cc3)n[nH]c2cc1=O [Compound 86, 3-fluoro-5-methoxy-4-(3-(4-(4-(oxetan-3-yl)piperazin-1-yl)phenyl)-6-oxo-1H-pyrazolo[4,3-c]pyridazin-5(6H)-yl)benzonitrile] | – | ≥ 7.30 | 334
Cc1cccc(F)c1-n1nc2c(-c3ccc(N4C[C@@H]5C[C@H]4CN5C)cc3)n[nH]c2cc1=O [Compound 87] | – | ≥ 7.30 | 584
Cc1cccc(F)c1-n1nc2c(-c3ccc(N4C[C@H]5C[C@@H]4CN5C)cc3)n[nH]c2cc1=O [Compound 88, 5-(2-fluoro-6-methylphenyl)-3-(4-((1R,4R)-5-methyl-2,5-diazabicyclo[2.2.1]heptan-2-yl)phenyl)-1H-pyrazolo[4,3-c]pyridazin-6(5H)-one] | – | 6.30 to 7.30 | 550
Cc1cccc(F)c1-n1nc2c(-c3ccc(N4CCN(C)C(C)(C)C4)cc3)n[nH]c2cc1=O [Compound 89, 5-(2-fluoro-6-methylphenyl)-3-(4-(3,3,4-trimethylpiperazin-1-yl)phenyl)-1H-pyrazolo[4,3-c]pyridazin-6(5H)-one] | – | ≥ 7.30 | 689
Cc1cccc(F)c1-n1nc2c(-c3ccc(N4C[C@@H](C)N(C)[C@@H](C)C4)cc3)n[nH]c2cc1=O [Compound 90, 5-(2-fluoro-6-methylphenyl)-3-(4-((3S,5R)-3,4,5-trimethylpiperazin-1-yl)phenyl)-1H-pyrazolo[4,3-c]pyridazin-6(5H)-one] | – | ≥ 7.30 | 667
Cc1cccc(F)c1-n1nc2c(-c3ccc(OCC4CNCCN4)cc3)n[nH]c2cc1=O (stereo not drawn) [Compound 93, 5-(2-fluoro-6-methylphenyl)-3-(4-(piperazin-2-ylmethoxy)phenyl)-1H-pyrazolo[4,3-c]pyridazin-6(5H)-one] | – | ≥ 7.30 | 210
Cc1cccc(F)c1-n1nc2c(-c3ccc(N4CCN(C)CC4)c(F)c3)n[nH]c2cc1=O [Compound 94] | – | ≥ 7.30 | 414
